Reference: patent US20060269924A1, “Modulation of telomere-initiated cell signaling” (TRUSTEES OF BOSTON UNIVERSITY, priority 2003, published 2006)
{P} = phosphate

Tests used:
S91 mouse melanoma cells = assay: Melanin content of S91 melanoma cells; format: cell-based; conditions: 100 μM
Method: Cultures of S91 mouse melanoma cells (100,000 cells/38 cm^2) were treated with 100 μM pTpT or phosphorothioate pTpT (pTspT) (FIG. 4) or 40 μM 11mer-1 or the phosphorothioate 11mer-1 (11mer-1-S) (FIG. 5) for 6 days and were then collected, counted and assayed for melanin content.
(§1) Duplicate cultures of S91 cells (100,000 cells/39 cm^2) were either sham-irradiated or irradiated with 5 mJ/cm^2 solar-simulated light from a 1 kW xenon arc solar-simulator (XMN 1000-21, Optical Radiation, Azuza, Calif.) metered at 285±5 nm using a research radiometer (model IL1700A, International Light, Newburyport, Mass.). Two sham-irradiated plates were then supplemented with 100 μM pTspT and two irradiated cultures were similarly treated with pTspT. After one week, cells were collected, counted and analyzed for melanin content by dissolving the cell pellets in 1 N NaOH and measuring the optical density at 475 nm. […] However, this response was blocked by the addition of pTspT (FIG. 6). In addition, the constitutive pigmentation of these cells was reduced by the pTspT in the sham-irradiated cultures, similar to the data presented in FIGS. 4 and 5.

S91 cells = assay: UV-induced melanogenesis in S91 cells; format: cell-based, mouse; conditions: 5 mJ/cm^2 solar-simulated light, 100 μM, one week
Method: as §1

[1] = system: p53 serine 15 phosphorylation and p21 induction in response to TRF2^DN; assay: PARP inhibitors and response to TRF2^DN, western analysis; format: cell-based; conditions: neonatal fibroblasts, AdTRF2DN, 3 days; 3AB 2.5 mM or IQ 100 μM
Method: The graphs show densitometric readings of the western blots, with diluent control set at 100%. FIG. 9f: Lane 1, diluent, GFP; lane 2, diluent TRF2DN; lane 3, 3AB, GFP; lane 4, 3AB, TRF2DN; lane 5, IQ, GFP; lane 6, IQ, TRF2DN.
Neonatal fibroblasts were treated with AdTRF2DN or AdGFP as a negative control. Two hours before infection, cells were treated with either diluent 3AB (2.5 mM) or IQ (100 μM). After 3 days cells were collected for western analysis for the c-myc-tagged TRF2DN (to confirm infection), p53 serine 15 phosphorylation and p21 induction.

[2] = system: T-oligo-induced total p53, p21, p53 serine 15 phosphorylation; assay: PARP inhibitor pretreatment and T-oligo responses, western blot; format: cell-based; conditions: fibroblasts, 40 μM T-oligo, 48 hours; 3AB 2.5 mM or IQ 100 μM
Method: To investigate the role of PARPs in responses to T-oligo, fibroblasts were pretreated with one of two different PARP inhibitors, 3-aminobenzamide (3AB, 2.5 mM) or […] (IQ, 100 μM) for 2 hours before addition of 40 μM T-oligo or an equal amount of diluent as a control. An additional dose of each inhibitor was given to the cells 4 hours after addition of the T-oligo or diluent (D). Fibroblasts were treated with 3AB and T-oligo, then collected 48 hours later for western blot. T-oligo-induced upregulation of total p53, p21, phosphorylation of p53 serine 15 (indicating p53 activation) were all reduced in the presence of 3AB (FIG. 17A).

[3] = system: HT-1080 fibrosarcoma cells; assay: BrdU incorporation assay, HT-1080 cells; format: cell-based, human; conditions: HT-1080 cells, 40 μM, 4 days
Method: (§2) FIG. 13a: Exposure to T-oligo increases SA-β-Gal activity. HT-1080 cells were treated for 4 days with diluent alone or 40 μM T-oligo or the complementary control oligo, then stained and assayed for SA-β-Gal activity. FIG. 13b: Quantitative analysis of SA-β-Gal positive cells. Cells expressing SA-β-Gal activity were counted and presented as percentage of total cells in the cultures. Averages and standard deviations were calculated from 3 representative fields from each of 3 independent experiments. FIG. 13c: Effect of T-oligo on cell proliferation. Cells were treated for 4 days as in FIG. 12 and assayed for DNA synthesis by BrdU incorporation. FIG. 13d: Quantitative analysis of BrdU incorporation. Dark black nuclei indicate BrdU incorporated into nuclear DNA. BrdU positive cells were calculated and presented as percentage of total cells in the cultures. Averages and standard deviations were calculated from 3 representative fields from each of 3 independent experiments. FIG. 13e: Effect of T-oligo on pRb phosphorylation. Cells were treated as in FIG. 13a and were then collected for protein analysis by western blot using 30 μg total protein and probed for pRb-ser780*, ser795* and ser807/811* (pRb phosphorylated at serine 780, serine 795 and serine 807/811 respectively). Lanes D, T and C contain protein samples from cells treated with diluent, T-oligo and complementary oligo respectively. β-actin was used as a loading control.
Parallel cultures were treated as described in FIG. 13a. Cells were then washed once with PBS and refed with complete medium without additional treatment for 24 hours or 48 hours. FIG. 14a: SA-β-Gal activity. […]
HT-1080 fibrosarcoma cells cultured on Permanox chamber slides were treated with diluent, 40 μM T-oligo or 40 μM complementary oligo for 4 days and DNA synthesis was assayed using 5-bromo-2′-deoxy-uridine (BrdU) Labeling and Detection Kit II (Roche Molecular Biochemicals, Indianapolis, Ind.) following the protocol supplied by the manufacturer. […] After incubation with anti-mouse-Ig-alkaline phosphatase, the color reaction was detected by light microscopy. […]

[4] = system: human fibrosarcoma HT-1080 cells; assay: SA-β-Gal staining, HT-1080 cells; format: cell-based; conditions: HT-1080 cells, 40 μM, 4 days
Method: as §2
Parallel cultures were treated as described in FIG. 13a. Cells were then washed once with PBS and refed with complete medium without additional treatment for 24 hours or 48 hours. FIG. 14a: SA-β-Gal activity. Cells were stained for SA-β-Gal activity. […]
TRF2^DN has been reported to induce a senescent phenotype in human fibrosarcoma HT-1080 cells. To determine whether exposure to the telomere 3′ overhang DNA (T-oligo) also induces senescence in these cells, HT-1080 cells (American Type Culture Collection; Manassas, Va.) were treated with either diluent alone, T-oligo or the complementary oligo as a control, for 4 days and then assessed for SA-β-Gal activity. […]

[5] = system: HT-1080 fibrosarcoma cells; assay: Telomere length (mean TRF length) assay; format: cell-based, human; conditions: HT-1080 cells, 40 μM, 4 days
Method: Cells were treated as described in FIG. 13a. Lanes 1, 2, 3 contain genomic DNA from cells treated with diluent (D), T-oligo (T), or complementary oligo (C). Lanes 4 and 5 contain high (H) molecular and low (L) molecular weight standard telomeric DNA.
HT-1080 fibrosarcoma cells were treated with diluent, 40 μM T-oligo or 40 μM complementary oligo for 4 days and then the genomic DNA was isolated using the DNeasy Tissue Kit (Qiagen, Valencia, Calif.). Telomere length was determined using the Telo TTAGGG Telomere Length Assay (Roche Molecular Biochemicals, Indianapolis, Ind.) following the protocol supplied by the manufacturer. […] Terminal restriction fragments (TRF) were detected by chemiluminescence. The mean TRF length was calculated by scanning the exposed X-ray film with a densitometer and calculated as previously described (Harley et al. [1990] Telomeres shorten during ageing of human fibroblasts. Nature 345, 458-460).
To determine the affect of T-oligos on the mean telomere length (MTL) in HT-1080 cells, cells were analyzed after treatment with T-oligo for 4 days which corresponded to the time that the senescent phenotype was readily observed. […] The less than 100 bp difference in calculated MTL is within the range of experimental variation and is not significant.

[6] = system: p95 phosphorylated at serine 343; assay: p95 serine 343 phosphorylation after tankyrase siRNA, western blotting and densitometry; format: cell-based, human; conditions: 24 hours
Method: Paired cultures of human fibroblasts were treated once with tankyrase siRNA, with a non-specific siRNA (control) or were mock transfected as a second control. […] After an additional 24 hours, cells were collected and processed for western blotting using an antibody specific for p95 phosphorylated at serine 343, indicating p95 modification by activated ATM kinase. The film was then subjected to densitometry and the diluent control for each group of cells was set at 1.0 in arbitrary units (FIG. 19). As expected, in cells with normal tankyrase levels the T-oligo treated cells had twice the amount of phosphorylated p95, while the control oligo-treated or diluent-treated cells had only a 30-40% increase.

[7] = system: HT-1080 human fibrosarcoma cells; assay: Clonogenic assay; format: cell-based; conditions: HT-1080, 40 μM for one week, then replated 2 weeks without treatment
Method: Cells were treated with diluent, 40 μM T-oligo or complementary oligo for one week, and then assayed. FIG. 15a: Appearance of stained dishes. FIG. 15b: Quantification of clonogenic capacity. Colonies of triplicate cultures were counted and plotted as percentage of diluent treated control.
Human fibrosarcoma cells were treated with diluent alone, 40 μM T-oligo or 40 μM complementary oligo for one week and were then trypsinized and counted. 300 cells were seeded into 60 mm culture dishes in triplicate and then incubated in complete medium for 2 weeks with medium changed twice per week. Subsequently, the cells were fixed for 5 min in 100% methanol. The methanol was then removed and the culture dishes were rinsed briefly with water. The colonies were stained for 10 min in 4% (w/v) methylene blue solution in PBS, washed once again with water, and then counted.
To determine the long-term effect of T-oligo treatment on cell growth, HT-1080 human fibrosarcoma cells were treated with either diluent alone, 40 μM T-oligo or 40 μM complementary control oligo for one week and then an equal number of cells were replated and medium was changed twice per week for 2 weeks with no further treatment, and then stained with methylene blue (FIG. 15a).

## pTspT
S91 mouse melanoma cells; 6 days
  constitutive pigmentation: reduced the constitutive pigmentation
  melanogenesis (melanin content): did not
S91 mouse melanoma cells; sham-irradiated, one week
  constitutive pigmentation: reduced
S91 cells
  UV-induced doubling of melanin content: blocked

## NC(=O)c1cccc(N)c1 [Oligonucleotide 3AB, 3-aminobenzamide]
[1]
  p21 induction in response to TRF2^DN: reduced
  p53 phosphorylation in response to TRF2^DN: reduced
[2]
  T-oligo-induced phosphorylation of p53 serine 15: reduced
  T-oligo-induced upregulation of p21: reduced
  T-oligo-induced upregulation of total p53: reduced

## pCTAACCCTAAC (DNA, 5' {P}, backbone and methylation of C not given here; listed as Homo sapiens) [Oligonucleotide 11mer-2, reference compound]
[3]
  BrdU incorporation (BrdU positive cells): 85±10%
[4]
  SA-β-Gal positive cells: 6±3%
[5]
  mean telomere length (MTL): 5.51 kb
[6]; human fibroblasts with normal tankyrase levels
  increase in phosphorylated p95: 30-40%
[6]; tankyrase knockdown group (tankyrase siRNA)
  level of p95 phosphorylation (densitometry, diluent control set at 1.0): 1.3 arbitrary units
[7]
  clonogenic capacity: 90.5±9.4 % of diluent treated control

## pTpT
S91 mouse melanoma cells; 6 days
  melanogenesis (melanin content): stimulated melanogenesis
